Results on 22 molecules are retold here after patent US9403776B2, “Aryl- and heteroaryl-substituted tetrahydrobenzazepines and use thereof to block reuptake of norepinephrine, dopamine, and serotonin” (Albany Molecular Research, Inc., priority 2005, dated 2016).

SMILES strings stand for the structures. Where a name gives a salt, the structure may show the parent alone.

`COc1ccc2c(c1)CN(C)CCC2c1cc(F)c(O)c(F)c1` (stereo not shown) (as salt: citrate) [Example 62, 2,6-difluoro-4-(8-methoxy-2-methyl-2,3,4,5-tetrahydro-1H-benzo[c]azepin-5-yl)phenol] came in with a melting point of 88 to 90 °C.

`CN1CCC(c2ccc3sccc3c2)c2ccc(-c3cnccn3)cc2C1.O=C(O)/C=C\C(=O)O` (single isomer, unassigned; (+)) [Example 105, (+)-5-(benzo[b]thiophen-5-yl)-2-methyl-8-(pyrazin-2-yl)-2,3,4,5-tetrahydro-1H-benzo[c]azepine, maleate salt]: the melting point was 102 to 108 °C.

`CN1CCC(c2ccccc2)c2ccc(-c3ccc(N(C)C)nn3)cc2C1` (single isomer, unassigned; (+)) (as salt: maleate) [Example 26, (+)-dimethyl-[6-(2-methyl-5-phenyl-2,3,4,5-tetrahydro-1H-benzo[c]azepine-8-yl)-pyridazin-3-yl]-amine] came in with a melting point of 99 to 102 °C.

On to `Cc1ccc2c(c1)CN(C)CCC2c1ccc(F)cc1` (single isomer, unassigned; (+)) (as salt: hydrochloride) [Example 16, (+)-5-(4-fluorophenyl)-2,8-dimethyl-2,3,4,5-tetrahydro-1H-benzo[c]azepine], for which the melting point fell in the range of 243 to 244 °C.

For the molecule `CN1CCC(c2ccc(Cl)cc2)c2ccc(-c3ncccn3)cc2C1` (single isomer, unassigned; (+)) (as salt: maleate) [Example 44, (+)-5-(4-chlorophenyl)-2-methyl-8-pyrimidin-2-yl-2,3,4,5-tetrahydro-1H-benzo[c]azepine], the melting point fell in the range of 84 to 85 °C.

`COc1ccc2c(c1)CN(C)CCC2c1ccc2sccc2c1` (single isomer, unassigned; (+)) (as salt: maleate) [Example 52 (+), (+)-5-benzo[b]thiophen-5-yl-8-methoxy-2-methyl-2,3,4,5-tetrahydro-1H-benzo[c]azepine]: the melting point was 92 to 96 °C.

Turning to `CN1CCC(c2ccc(Cl)cc2)c2ccc(N3CCOCC3)cc2C1` (single isomer, unassigned; (-)) (as salt: maleate) [Example 47, (−)-4-(5-(4-chlorophenyl)-2-methyl-2,3,4,5-tetrahydro-1H-benzo[c]azepin-8-yl)morpholine], the melting point was 99 to 100 °C.

On to `CN1CCC(c2ccc(Cl)cc2)c2ccc(N3CCOCC3)cc2C1` (single isomer, unassigned; (+)) (as salt: maleate) [Example 48, (+)-5-(4-chlorophenyl)-2-methyl-8-morpholin-4-yl-2,3,4,5-tetrahydro-1H-benzo[c]azepine], for which the melting point was in the range of 94 to 96 °C.

`c1ccc(CN2CCC(c3ccccc3)c3ccc(N4CCOCC4)cc3C2)cc1` (single isomer, unassigned; (+)) (as salt: maleate) [Example 61, (+)-4-(2-benzyl-5-phenyl-2,3,4,5-tetrahydro-1H-benzo[c]azepin-8-yl)morpholine] gave a melting point of 108 to 110 °C.

The molecule `OCCN1CCC(c2ccccc2)c2ccc(N3CCOCC3)cc2C1` (single isomer, unassigned; (+)) (as salt: tartrate) [Example 59, (+)-2-(8-morpholino-5-phenyl-4,5-dihydro-1H-benzo[c]azepin-2(3H)-yl)ethanol] had a melting point of 93 to 96 °C.

Consider `CCN1CCC(c2ccccc2)c2ccc(N3CCOCC3)cc2C1` (single isomer, unassigned; (-)) (as salt: maleate) [Example 57 (−), (−)-4-(2-ethyl-5-phenyl-2,3,4,5-tetrahydro-1H-benzo[c]azepin-8-yl)morpholine], for which the melting point is 68 to 72 °C.

`CN1CCC(c2ccc(Cl)cc2)c2ccc(-c3ccc(N(C)C)nn3)cc2C1` (single isomer, unassigned) (as salt: maleate) [Example 45, {6-[5-(4-chlorophenyl)-2-methyl-2,3,4,5-tetrahydro-1H-benzo[c]azepine-8-yl]-pyridazin-3-yl}-dimethylamine]: the melting point lay within 96 to 98 °C.

`CN1CCC(c2ccc(F)cc2)c2ccc(O)cc2C1` (single isomer, unassigned; (-)) (as salt: hydrochloride) [Example 14, (−)-5-(4-fluorophenyl)-2-methyl-2,3,4,5-tetrahydro-1H-benzo[c]azepin-8-ol] showed a melting point of 159 to 161 °C.

Turning to `COc1ccc2c(c1)CN(C)CCC2c1cc(F)c(C#N)c(F)c1` (stereo not shown) (as salt: citrate), the melting point fell in the range of 82 to 86 °C.

`CN1CCC(c2ccccc2)c2ccc(C#N)cc2C1` (stereo not shown) (as salt: maleate) gave a melting point of 67 to 69 °C.

Molecule `CN1CCC(c2ccccc2)c2ccc(C(C)(C)O)cc2C1` (single isomer, unassigned; (+)) (as salt: tartrate) [Example 18, (+)-2-(2-methyl-5-phenyl-2,3,4,5-tetrahydro-1H-benzo[c]azepin-8-yl)propan-2-ol] had a melting point of 103 to 105 °C.

Molecule `COc1ccc2c(c1)CN(C)CCC2c1ccc(Cl)cc1` (single isomer, unassigned; (-)) (as salt: hydrochloride) [Example 8 (−), (−)-5-(4-chlorophenyl)-8-methoxy-2-methyl-2,3,4,5-tetrahydro-1H-benzo[c]azepine] returned a melting point of 210 to 211 °C.

As to `Cc1noc(C)c1-c1ccc2c(c1)CN(C)CCC2c1ccc(Cl)cc1` (single isomer, unassigned; (+)) (as salt: maleate) [Example 43, (+)-5-(4-chlorophenyl)-8-(3,5-dimethylisoxazol-4-yl)-2-methyl-2,3,4,5-tetrahydro-1H-benzo[c]azepine], the melting point was 196 to 198 °C.

Molecule `CN1CCC(c2ccc3sccc3c2)c2ccc(-c3cccnn3)cc2C1.O=C(O)/C=C\C(=O)O` (single isomer, unassigned; (+)) [Example 107, (+)-5-(benzo[b]thiophen-5-yl)-2-methyl-8-(pyridazin-3-yl)-2,3,4,5-tetrahydro-1H-benzo[c]azepine, maleate salt] showed a melting point of 117 to 121 °C.

As for `CN1CCC(c2ccccc2)c2ccc(-c3cccc(N)n3)cc2C1` (single isomer, unassigned; (+)) (as salt: maleate) [Example 32, (+)-6-(2-methyl-5-phenyl-2,3,4,5-tetrahydro-1H-benzo[c]azepin-8-yl)pyridine-2-amine], the melting point was 112 to 114 °C.

As to `CN1CCC(c2ccccc2)c2ccc(-c3ccncc3)cc2C1` (single isomer, unassigned; (+)) (as salt: maleate) [Example 31, (+)-2-methyl-5-phenyl-8-(pyridin-4-yl)-2,3,4,5-tetrahydro-1H-benzo[c]azepine], the melting point lay in the range of 91 to 93 °C.

`COc1ccc2c(c1)CN(C)CCC2c1ccc(F)cc1` (single isomer, unassigned; (-)) (as salt: hydrochloride) [Example 4 (−), (−)-5-(4-fluorophenyl)-8-methoxy-2-methyl-2,3,4,5-tetrahydro-1H-benzo[c]azepine] came in with a melting point of 246 to 248 °C.
